Measured values reported in PubChem BioAssay (NCI).
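In this assay, cells in 96-well plates receive the compound at five concentrations for 48 hours. Endpoints are linearly interpolated between the surrounding concentrations. TGI is the concentration that stops growth completely.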

Legend:
Assay in all cases: DTP human tumour cell line panel, 48 h
ACHN renal = tested on: ACHN renal
SK-MEL-28 melanoma = tested on: SK-MEL-28 melanoma
HS 578T breast = tested on: HS 578T breast
UACC-257 melanoma = tested on: UACC-257 melanoma
OVCAR-4 ovarian = tested on: OVCAR-4 ovarian
786-0 renal = tested on: 786-0 renal
HOP-62 NSCLC = tested on: HOP-62 NSCLC
NCI/ADR-RES ovarian = tested on: NCI/ADR-RES ovarian
HT29 colon = tested on: HT29 colon
MDA-MB-435 = tested on: MDA-MB-435
SW-620 colon = tested on: SW-620 colon
KM12 colon = tested on: KM12 colon
BT-549 breast = tested on: BT-549 breast
EKVX NSCLC = tested on: EKVX NSCLC
MALME-3M melanoma = tested on: MALME-3M melanoma
NCI-H23 lung = tested on: NCI-H23 lung
SF-295 CNS = tested on: SF-295 CNS
OVCAR-8 ovarian = tested on: OVCAR-8 ovarian
A498 renal = tested on: A498 renal
MDA-MB-231 breast = tested on: MDA-MB-231 breast
OVCAR-5 ovarian = tested on: OVCAR-5 ovarian
K-562 leukemia = tested on: K-562 leukemia
SK-MEL-5 melanoma = tested on: SK-MEL-5 melanoma
T-47D breast = tested on: T-47D breast
MCF7 breast = tested on: MCF7 breast
RPMI-8226 leukemia = tested on: RPMI-8226 leukemia
COLO 205 colon = tested on: COLO 205 colon
HCT-15 colon = tested on: HCT-15 colon
NCI-H522 lung = tested on: NCI-H522 lung
TK-10 renal = tested on: TK-10 renal
CAKI-1 renal = tested on: CAKI-1 renal
UACC-62 melanoma = tested on: UACC-62 melanoma
SF-539 CNS = tested on: SF-539 CNS
SK-MEL-2 melanoma = tested on: SK-MEL-2 melanoma
SNB-19 CNS = tested on: SNB-19 CNS
M14 melanoma = tested on: M14 melanoma
U251 CNS = tested on: U251 CNS
MOLT-4 leukemia = tested on: MOLT-4 leukemia
PC-3 prostate = tested on: PC-3 prostate
LOX IMVI melanoma = tested on: LOX IMVI melanoma
SF-268 CNS = tested on: SF-268 CNS
OVCAR-3 ovarian = tested on: OVCAR-3 ovarian
SN12C renal = tested on: SN12C renal
DU-145 prostate = tested on: DU-145 prostate
SK-OV-3 ovarian = tested on: SK-OV-3 ovarian
IGROV1 ovarian = tested on: IGROV1 ovarian
SR leukemia = tested on: SR leukemia
NCI-H226 lung = tested on: NCI-H226 lung
HCT-116 colon = tested on: HCT-116 colon
HL-60(TB) leukemia = tested on: HL-60(TB) leukemia
UO-31 renal = tested on: UO-31 renal
A549 NSCLC = tested on: A549 NSCLC
CCRF-CEM leukemia = tested on: CCRF-CEM leukemia

Measured: TGI

N#CCCOc1cccc(C2(N3CCCCC3)CCCCC2)c1
> 100 µM: all assays above
